Experimental data: patent US20100284984A1, “ADENOSINE AND ITS MIMETICS. MODULATORS, TRANSPORT INHIBITORS, AND RECEPTOR AGONISTS AS A THERAPEUTIC TOOL TO REPLACE OR IMPROVE THE EFFICACY OF DEEP BRAIN STIMULATION” (University of Rochester, priority 2007, published 2010)
Entries after “also recorded” stand apart in the source; their conditions may differ.

What was measured:
[1] = test system: P2 receptors; details: cited from earlier work
[2] = test system: thalamic slices; experiment: Extracellular adenosine by biosensor during HFS of thalamic slices; format: cell-based, mouse; details: 50 μM
Experimental: Thalamic slices (300 μm) from 14-18 day old mouse pups (FVB/NJ mice; Jackson Laboratory) were cut on a Vibratome (TPI) in an ice-cold cutting solution containing (in mM): 2.5 KCl, 1.25 NaH2PO4, 10 MgSO4, 5 CaCl2, 10 glucose, 26 NaHCO3, 230 sucrose and gassed with 5% CO2 and 95% O2. Slices were incubated for a minimum of 1 hr in a slice solution containing (in mM): 126 NaCl, 2.5 KCl, 1.25 NaH2PO4, 2 MgCl2, 2 CaCl2, 10 glucose, and 26 NaHCO3, pH 7.4, and gassed with 5% CO2 and 95% O2 at room temperature. The slices were transferred to a recording chamber (1.5 ml) perfused with aCSF at room temperature or 32° C. Whole-cell current clamp recordings were obtained using a 700B Multiclamp amplifier (Axon Instruments) (Jiang et al., “A Kainate Receptor Increases The Efficacy of Gabaergic Synapses,” Neuron 30:503-13 (2001); Tian et al., “An Astrocytic Basis of Epilepsy,” Nat Med 11:973-81 (2005), which are hereby incorporated by reference in their entirety). Concentric bipolar stimulating electrodes (FHC) were placed ˜100-400 μm ventromedial to the patched VL thalamic neuron. […] Adenosine measurements were detected using needle shaped electrode (Pt/Ir wire) biosensors (Sarissa Biomedical). […]

[3] = target: Ecto-ATPase; details: Crack et al.; cited from earlier work
[4] = target: Rat Parotid Ecto-ATPase; details: Dowd et al.; cited from earlier work
[5] = test system: thalamic neurons; experiment: HFS-induced depression of eEPSPs in thalamic slices, pharmacology; format: cell-based, mouse; details: 50 μM; HFS 250 μA, 100 μs, 5 sec, 20° C.
[6] = target: Ecto-ATPase; details: Drakulich et al.; cited from earlier work

SMILES: CCN(CC)c1ncnc2c1ncn2C1OC(COP(=O)(O)OP(=O)(O)C(Br)(Br)P(=O)(O)O)C(O)C1O [ARL67156, 6-N,N-diethyl-D-beta, gamma-dibromomethyleneATP]
- effect on P2 receptors [1]: lack of or only has weak effect
- HFS-induced increase in extracellular adenosine [2]: reduction in the HFS-induced adenosine increase
- HFS-induced increase in extracellular adenosine ([2]; listed as ARL): reduced adenosine increases during HFS; also recorded: did not completely block the rise in adenosine
- IC50 [3]: 4.6 µM
- IC50 [4]: 120 µM
- effect on HFS-induced depression of eEPSPs (FIG. 3G) [5]: attenuated HFS-induced depression of eEPSPs
- Ki [6]: 0.255 µM
